From patent publication US8415376B2, “Inhibitors of PI3 kinase” (Amgen Inc., priority 2008, dated 2013)

What was measured:
PI3Kα = target: T1, PI3Kα (Homo sapiens, UniProt P42336); assay: In vitro PI3K AlphaScreen assay; assay type: biochemical; details: average if run more than once
T1 construct: Full length p110 subunits of PI3K α, β and δ, N-terminally labeled with polyHis tag; polyHis (N); made in house; host or cells: Sf9 insect cells (baculovirus)
Procedure: In Vitro PI3K Alphascreen® Assay
The PI3K AlphaScreen® assay (PerkinElmer, Waltham, Mass.) measures the activity of a panel of four phosphoinositide 3-kinases: PI3Kα, PI3Kβ, PI3Kγ, and PI3Kδ. Each of these enzymes phosphorylates the 3′-hydroxyl group on phosphatidylinositiol (4,5)-bisphosphate (PIP2) to produce phosphatidylinositol (3,4,5)-trisphosphate (PIP3). This phosphorylation activity is measured using a GST-tagged PIP3 binding protein (Echelon Biosciences, Salt Lake City, Utah), an anti-GST-tagged Acceptor bead, and streptavidin-Donor bead. […] In the absence of this interaction, proximity of the Donor and Acceptor beads is decreased, producing a loss of luminescent signal which is inversely proportional to PI3K activity.
The enzyme reaction buffer is made using sterile water (Baxter, Deerfield, Ill.) and 50 mM Tris HCl pH 7, 14 mM MgCl2, 2 mM sodium cholate, and 100 mM NaCl. 2 mM DTT is added fresh the day of the experiment. The AlphaScreen® reaction buffer is made using sterile water and 10 mM Tris HCl pH 7.5, 150 mM NaCl, 0.10% Tween 20, and 30 mM EDTA. 1 mM DTT is added fresh the day of the experiment.
The source plates for this assay are 384-well Greiner clear polypropylene plates containing test compounds at 5mM and diluted 1:2 over 22 points. […] Source plates are replicated into 384-well Optiplates (PerkinElmer, Waltham, Mass.), 0.5 μL/well, to make assay-ready plates.
The different PI3K isoforms are each diluted in enzyme reaction buffer to 2× working solutions. […] Two different 2× substrate solutions are made in enzyme reaction buffer. In one solution, PI(4,5)P2 (Echelon Biosciences, Salt Lake City, Utah) is diluted to 10 μM and ATP is diluted to 20 μM. This solution is used in the assays testing PI3Kα and PI3Kβ. In a second solution, PI(4,5)P2 is diluted to 10 μM and ATP is diluted to 8 μM. This solution used in the assays testing PI3Kγ and PI3Kδ.
The AlphaScreen® reaction solutions are made using beads from the anti-GST AlphaScreen® kit (PerkinElmer, Waltham, Mass.). Two solutions are made in Alphascreen reaction buffer to 4× working concentrations. In one solution, biotinylated-IP4 (Echelon Biosciences, Salt Lake City, Utah) is diluted to 40 nM and streptavadin-Donor Beads are diluted to 80 μg/mL. In the second solution, PIP3-binding protein (Echelon Biosciences, Salt Lake City, Utah) is diluted to 40 nM and anti-GST-Acceptor Beads are diluted to 80 μg/mL. 10 μL/well of enzyme reaction buffer is added to Column 24 of the assay ready plates in place of enzyme. This is done for plates in the PI3Kα, β, and 67 assays.
Using a 384-well dispensing Multidrop (Titertek, Huntsville, Ala.), 10 μL/well of 2× enzyme (PI3Kα, β, δ) is added to Columns 1-23 of the appropriate assay ready plates (for PI3Kγ 10 μL is added to Columns 1-24). 10 μL/well of the appropriate substrate solution (the solution with 20 μM ATP for PI3Kα and β assays, and the solution with 8 μM ATP for PI3Kγ and δ assays) is then added to Columns 1-24 of the plates. Plates are then incubated at room temperature for 20 minutes.
In the dark, 10 μL/well of the Donor Bead solution is added to Columns 1-24 of the plates to quench the enzyme reaction. The plates are incubated at room temperature for 30 minutes. Still in the dark, 10 μL/well of the Acceptor Bead solution is also added to Columns 1-24 of the plates. The plates are then incubated in the dark for 1.5 hours. The plates are read on an Envision Multilabel Plate Reader (PerkinElmer, Waltham, Mass.) with a 680 nm excitation filter and a 520-620 nm emission filter.

[1] = tested on: phosphorylation of Akt at Serine 473; assay: pAkt AlphaScreen (U87 cell); assay type: cell-based; details: Homo sapiens, U-87 MG; U87 MG cells, pAkt Ser473; average
Procedure: pAkt Alphascreen (U87 Cell)
The pAkt AlphaScreen® assay (PerkinElmer, Waltham, Mass.) determines whether there is phosphorylation of Akt at Serine 473 by recruitment of a phosphospecific antibody. This assay was performed using U87 MG cells. The U87 growth media consists of MEM (Gibco, Carlsbad, Calif.) supplemented with 10% FBS (Gibco,), 1× Non-Essential Amino Acids (Gibco,) and 1× Penicillin/Streptomycin/Glutamine (Gibco). The cells were maintained weekly using 0.05% Trypsin (Gibco) and replated in 150 mm TC-Treated Culture Dishes (Corning, Corning, N.Y.).
The first day of the assay, the adherent cells were trypsinized, media was added to the loose cells and cells were mixed to a homogenous mixture. 0.5 ml of the homogenous mixture was counted on the Beckman Coulter® Vi-CELL™ XR (Fullerton, Calif.). 50 frames of cells were counted and the number of viable cells was determined. The cells were then diluted to 0.25 million cells per ml, and centrifuged at 200 rcf for 5 minutes. The media was removed and the cells were reconstituted in fresh media for plating. The cells were plated at 20 μl per well on the PerkinElmer® FlexDrop PLUS in Low Volume 384 Well White Tissue Culture Plates (Corning) with a final cell density of 5K cells per well. The plates were incubated overnight at 37° Celsius, 5% CO2.
On the second day, the compound plates were prepared, the cells were treated with compound and the pAkt reaction mix was added to the cell lysate. 384 well compound plates were prepared containing 1 μl of compound per well starting at 5 mM and diluted 1:2 across the row, resulting in a 22 well serial dilution. 39 μl of growth media was added to the compound plate in rows 1-22 using the PerkinElmer® FlexDrop PLUS resulting in a DMSO concentration of 2.5%. The cell plates and diluted compound plates were put onto the VELOCITY11™ VPREP™ 384 ST where the compound plate was mixed and 5 μl of serially diluted compound or controls was added to the cell plate. The final concentration of the compounds was 25 μM serially diluted to 11.9 pM in 0.5% DMSO. The cell plates were then incubated with compound for two hours at 37° Celsius, 5% CO2. After two hours, the media in the cell plates was aspirated using the BioTek® ELx405HT plate washer (Winooski, Vt.) removing the majority of media and compound without disturbing the adherent U87 cells. The following assay reagents are components of the SureFire® Akt (Ser 473) Phosphorylation 50K Point Kit (TGR BioSciences, Adelaide, Austalia) and an IgG Detection Kit (PerkinElmer, Waltham, Mass.). 5 μl of 1× Lysis Buffer was added to each well using the PerkinElmer® FlexDrop PLUS. The plates were then incubated at room temperature on a shaker for ten minutes. The AlphaScreen® reaction was prepared under low light conditions (subdued or green light) including p-Akt (Ser 473) Reaction Buffer, Dilution Buffer, Activation Buffer, Acceptor Beads and Donor Beads at a ratio of 40:20:10:1:1 respectively. The AlphaScreen® reaction was added to the cell lysate at 6 μl per well using the PerkinElmer® FlexDrop PLUS. The plates were placed in a humid environment to reduce edge effects and incubated overnight at room temperature with restricted air flow in the dark.
On the final day of the experiment, the plates were read on the PerkinElmer® EnVision™ 2103 Multilable Reader using the standard AlphaScreen® readout. The POC is calculated and the data is analyzed to report the IC50 IP for pAkt at Serine 473.
Activity data for the compounds tested in the PI3K cell based Akt assay is provided in Table 2 under the column heading U87

mTOR = target: T2, mTOR (Homo sapiens, UniProt P42345); assay: In vitro mTOR assay (Lanthascreen); assay type: biochemical; details: average if run more than once
T2 construct: purchased Invitrogen (Carlsbad, Calif.)
T2 sequence (P42345 1360-2549 limits assumed): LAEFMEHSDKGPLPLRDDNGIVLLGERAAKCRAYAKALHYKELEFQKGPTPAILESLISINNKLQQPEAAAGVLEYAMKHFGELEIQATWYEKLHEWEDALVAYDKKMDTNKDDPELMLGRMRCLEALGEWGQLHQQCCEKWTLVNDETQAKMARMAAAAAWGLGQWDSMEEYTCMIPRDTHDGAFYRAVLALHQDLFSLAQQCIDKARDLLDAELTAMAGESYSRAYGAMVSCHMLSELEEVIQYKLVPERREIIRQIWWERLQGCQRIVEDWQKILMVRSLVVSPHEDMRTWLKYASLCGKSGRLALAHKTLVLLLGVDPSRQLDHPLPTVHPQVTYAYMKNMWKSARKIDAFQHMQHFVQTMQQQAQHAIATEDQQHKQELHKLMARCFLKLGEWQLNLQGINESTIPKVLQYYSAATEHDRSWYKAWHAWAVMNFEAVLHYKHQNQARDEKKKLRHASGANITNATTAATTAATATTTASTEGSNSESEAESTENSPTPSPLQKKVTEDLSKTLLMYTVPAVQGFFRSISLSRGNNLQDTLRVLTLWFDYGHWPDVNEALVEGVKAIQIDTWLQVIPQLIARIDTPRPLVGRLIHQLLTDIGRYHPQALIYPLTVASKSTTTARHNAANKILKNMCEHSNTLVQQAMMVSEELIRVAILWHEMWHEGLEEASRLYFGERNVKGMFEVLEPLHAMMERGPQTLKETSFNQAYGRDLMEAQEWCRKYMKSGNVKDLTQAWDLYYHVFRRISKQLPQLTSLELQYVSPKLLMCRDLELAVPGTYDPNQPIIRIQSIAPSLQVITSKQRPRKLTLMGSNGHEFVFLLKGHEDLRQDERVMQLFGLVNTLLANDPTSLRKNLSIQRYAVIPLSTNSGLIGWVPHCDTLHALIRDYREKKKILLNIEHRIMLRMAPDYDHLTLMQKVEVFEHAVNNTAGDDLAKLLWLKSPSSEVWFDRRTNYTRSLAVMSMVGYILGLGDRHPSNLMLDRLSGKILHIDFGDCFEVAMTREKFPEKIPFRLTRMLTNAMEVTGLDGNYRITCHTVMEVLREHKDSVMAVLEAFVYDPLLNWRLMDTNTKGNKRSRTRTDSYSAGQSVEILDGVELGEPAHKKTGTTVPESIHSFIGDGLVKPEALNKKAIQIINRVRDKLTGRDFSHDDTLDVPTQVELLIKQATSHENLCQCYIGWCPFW
How it was run: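 mTOR activity measured by TR-FRET as Thr46 phosphorylation of GFP-4E-BP1, detected with Tb-labelled anti-phospho-4E-BP1 [T46] antibody after EDTA stop. Final 50 ng/mL mTOR, 400 nM GFP-4E-BP1, 7 μM ATP in HEPES pH 7.5 with 10 mM MnCl2; 1 h, room temperature. 10-point 1:3 compound series.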

T1 sequence (P42336 whole entry): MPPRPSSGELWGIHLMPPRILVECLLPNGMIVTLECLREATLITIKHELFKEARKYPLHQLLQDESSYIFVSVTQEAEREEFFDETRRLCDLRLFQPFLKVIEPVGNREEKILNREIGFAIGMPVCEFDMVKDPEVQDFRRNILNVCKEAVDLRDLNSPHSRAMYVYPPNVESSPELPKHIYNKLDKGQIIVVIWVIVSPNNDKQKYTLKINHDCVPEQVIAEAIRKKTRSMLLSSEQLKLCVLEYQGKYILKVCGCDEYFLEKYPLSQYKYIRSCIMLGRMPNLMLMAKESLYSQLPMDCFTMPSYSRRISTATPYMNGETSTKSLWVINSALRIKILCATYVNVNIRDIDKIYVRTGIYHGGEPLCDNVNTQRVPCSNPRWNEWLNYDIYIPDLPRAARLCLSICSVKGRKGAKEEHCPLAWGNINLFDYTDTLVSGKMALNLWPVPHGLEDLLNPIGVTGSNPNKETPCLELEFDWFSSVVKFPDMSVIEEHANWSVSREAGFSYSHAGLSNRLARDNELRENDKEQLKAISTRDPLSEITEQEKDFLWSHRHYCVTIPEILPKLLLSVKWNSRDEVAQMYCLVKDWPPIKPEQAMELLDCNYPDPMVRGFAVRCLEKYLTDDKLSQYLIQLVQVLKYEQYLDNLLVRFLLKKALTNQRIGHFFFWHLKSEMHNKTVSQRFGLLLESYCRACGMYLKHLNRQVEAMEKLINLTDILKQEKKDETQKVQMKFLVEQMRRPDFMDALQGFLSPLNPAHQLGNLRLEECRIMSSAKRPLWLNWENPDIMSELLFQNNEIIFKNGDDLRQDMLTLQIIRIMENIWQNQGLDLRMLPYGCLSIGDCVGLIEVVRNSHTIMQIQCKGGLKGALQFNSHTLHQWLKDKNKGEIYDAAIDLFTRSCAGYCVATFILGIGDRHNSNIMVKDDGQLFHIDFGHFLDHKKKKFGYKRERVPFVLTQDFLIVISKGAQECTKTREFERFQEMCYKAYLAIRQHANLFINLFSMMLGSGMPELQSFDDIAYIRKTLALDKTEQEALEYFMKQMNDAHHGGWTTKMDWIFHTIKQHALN
T1 sequence (P27986 whole entry partner): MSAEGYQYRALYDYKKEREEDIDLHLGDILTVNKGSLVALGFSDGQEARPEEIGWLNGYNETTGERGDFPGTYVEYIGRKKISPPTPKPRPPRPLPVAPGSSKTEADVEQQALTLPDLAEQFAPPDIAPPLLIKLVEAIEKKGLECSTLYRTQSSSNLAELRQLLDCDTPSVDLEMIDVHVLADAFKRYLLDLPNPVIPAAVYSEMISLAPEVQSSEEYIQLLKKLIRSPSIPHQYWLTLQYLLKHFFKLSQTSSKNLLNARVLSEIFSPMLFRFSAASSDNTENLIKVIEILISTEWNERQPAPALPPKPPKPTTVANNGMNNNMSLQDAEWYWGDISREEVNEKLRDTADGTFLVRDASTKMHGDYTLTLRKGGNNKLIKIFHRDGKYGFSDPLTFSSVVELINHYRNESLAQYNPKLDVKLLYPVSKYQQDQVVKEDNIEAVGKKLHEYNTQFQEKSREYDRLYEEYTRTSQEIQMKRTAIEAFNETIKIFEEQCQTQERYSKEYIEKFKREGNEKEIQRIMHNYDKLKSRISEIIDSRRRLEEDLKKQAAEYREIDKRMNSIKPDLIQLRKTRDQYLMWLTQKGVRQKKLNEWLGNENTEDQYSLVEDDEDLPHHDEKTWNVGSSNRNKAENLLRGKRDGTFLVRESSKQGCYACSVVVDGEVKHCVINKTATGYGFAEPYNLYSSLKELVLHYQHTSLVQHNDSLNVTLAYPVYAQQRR

Row | Structure (SMILES) | Ki (PI3Kα) | IC50 [1] | IC50 (mTOR)
1 | C[C@@H]1CN(c2ccnc3ccc(-c4cnc(Cl)c(NS(C)(=O)=O)c4)cc23)C[C@@H](C)O1 (racemic) [Example 104, N-(2-chloro-5-(4-(2,6-dimethyl-4-morpholinyl)-6-quinolinyl)-3-pyridinyl)methanesulfonamide] | 0.0083 µM | 0.0284 µM | 0.0058 µM
2 | COC(C)(C)CNc1ccnc2ccc(-c3cnc(Cl)c(NS(C)(=O)=O)c3)cc12 [Example 79, N-(2-chloro-5-(4-((2-methoxy-2-methylpropyl)amino)-6-quinolinyl)-3-pyridinyl)methanesulfonamide] | 0.0823 µM | 2.83 µM | 0.363 µM
3 | COc1ncc(-c2ccc3nccc(N4CCOCC4)c3c2)cc1NS(C)(=O)=O [Example 119, N-(2-Methoxy-5-(4-morpholinoquinolin-6-yl)pyridin-3-yl)methanesulfonamide] | 0.0047 µM | 0.0448 µM | 0.0176 µM
4 | COc1ncc(-c2ccc3nccc(-c4ccncc4)c3c2)cc1NS(C)(=O)=O [Example 120, N-(2-Methoxy-5-(4-(pyridin-4-yl)quinolin-6-yl)pyridin-3-yl)methanesulfonamide] | 0.0035 µM | 0.0147 µM | 0.0048 µM
5 | CS(=O)(=O)Nc1cc(-c2ccc3nccc(N4Cc5ccc(F)cc5C4)c3c2)cnc1Cl [Example 86, N-(2-chloro-5-(4-(5-fluoro-1,3-dihydro-2H-isoindol-2-yl)-6-quinolinyl)-3-pyridinyl)methanesulfonamide] | 0.016 µM | 0.667 µM | 0.162 µM
6 | CN(Cc1cccc(F)c1)c1ccnc2ccc(-c3cnc(Cl)c(NS(C)(=O)=O)c3)cc12 [Example 85, N-(2-chloro-5-(4-((3-fluorobenzyl)(methyl)amino)-6-quinolinyl)-3-pyridinyl)methanesulfonamide] | 0.0158 µM | 1.66 µM | 0.0621 µM
7 | O=S(=O)(Nc1cc(-c2ccc3c(c2)OCCO3)cnc1Cl)c1ccc(F)cc1 [Example 128, N-(2-Chloro-5-(2,3-dihydrobenzo[b][1,4]dioxin-6-yl)pyridin-3-yl)-4-fluorobenzenesulfonamide] | 0.0333 µM | 20.4 µM | 0.0527 µM
8 | C[C@@H]1CN(c2ccnc3ccc(-c4cnc(Cl)c(NS(=O)(=O)c5ccc(F)cc5)c4)cc23)C[C@H](C)O1 [Example 96, N-(2-chloro-5-(4-((2R,6S)-2,6-dimethyl-4-morpholinyl)-6-quinolinyl)-3-pyridinyl)-4-fluorobenzenesulfonamide] | 0.0068 µM | 0.0375 µM | 0.011 µM
9 | CN(C)S(=O)(=O)Nc1cc(-c2ccc3ncc(=O)n(-c4cccc(C(F)(F)F)c4)c3c2)cnc1Cl [Example 133, N-(2-chloro-5-(3-oxo-4-(3-(trifluoromethyl)phenyl)-3,4-dihydroquinoxalin-6-yl)pyridin-3-yl)dimethylaminosulfonamide] | 0.0023 µM | 0.0094 µM | 0.0005 µM
10 | CS(=O)(=O)Nc1cc(-c2ccc3ncc(N4CCOCC4)nc3c2)cnc1Cl [Example 92, N-(2-chloro-5-(3-(4-morpholinyl)-6-quinoxalinyl)-3-pyridinyl)methanesulfonamide] | 0.0028 µM | 0.084 µM | 0.0283 µM
11 | CC(c1ccccc1)N1CCN(c2ccnc3ccc(-c4cnc(Cl)c(NS(C)(=O)=O)c4)cc23)CC1 (stereo not drawn) [Example 83, N-(2-chloro-5-(4-(4-(1-phenylethyl)-1-piperazinyl)-6-quinolinyl)-3-pyridinyl)methanesulfonamide] | 0.0136 µM | 0.758 µM | 0.0821 µM
12 | CC1(C)CN(c2ccnc3ccc(-c4cnc(Cl)c(NS(C)(=O)=O)c4)cc23)CCO1 [Example 90, N-(2-chloro-5-(4-(2,2-dimethyl-4-morpholinyl)-6-quinolinyl)-3-pyridinyl)methanesulfonamide] | 0.0107 µM | 0.0484 µM | 0.0044 µM
13 | CN(C)c1ccc(-c2ccnc3ccc(-c4cnc(Cl)c(NS(=O)(=O)c5ccc(F)cc5)c4)cc23)cc1 [Example 102, N-(2-chloro-5-(4-(4-(dimethylamino)phenyl)-6-quinolinyl)-3-pyridinyl)-4-fluorobenzenesulfonamide] | 0.0013 µM | 0.0641 µM | 0.0153 µM
14 | O=S(=O)(Nc1cc(-c2ccc3nccc(-c4ccnc(Cl)c4)c3c2)cnc1Cl)c1ccc(F)cc1 [Example 94, N-(2-chloro-5-(4-(2-chloro-4-pyridinyl)-6-quinolinyl)-3-pyridinyl)-4-fluorobenzenesulfonamide] | 0.0013 µM | 0.0053 µM | 0.0006 µM
15 | CN(C)S(=O)(=O)Nc1cc(-c2ccc3ncc(=O)n(-c4ccccc4)c3c2)cnc1Cl [Example 130, N-(2-chloro-5-(3-oxo-4-phenyl-3,4-dihydroquinoxalin-6-yl)pyridin-3-yl)dimethylaminosulfonamide] | 0.0025 µM | 0.0087 µM | 0.0012 µM
16 | O=S(=O)(Nc1cc(-c2ccc3nccc(N4CCOCC4)c3c2)cnc1Cl)N1CCOCC1 [Example 124, N-(2-chloro-5-(4-morpholinoquinolin-6-yl)pyridin-3-yl)morpholine-4-sulfonamide] | 0.0046 µM | 0.0399 µM | 0.0143 µM
17 | COc1ccc(OC)c(CNc2ccnc3ccc(-c4cnc(Cl)c(NS(C)(=O)=O)c4)cc23)c1 [Example 87, N-(2-chloro-5-(4-((2,5-dimethoxybenzyl)amino)-6-quinolinyl)-3-pyridinyl)methanesulfonamide] | 0.0332 µM | 1.42 µM | 0.295 µM
18 | CS(=O)(=O)Nc1cc(-c2ccc3nccc(-c4ccncc4)c3c2)cnc1Cl [Example 118, N-(2-Chloro-5-(4-(pyridin-4-yl)quinolin-6-yl)pyridin-3-yl)methanesulfonamide] | 0.0011 µM | 0.0127 µM | 0.0012 µM
19 | COCCN(C)S(=O)(=O)Nc1cc(-c2ccc3ncc(=O)n(-c4ccccc4)c3c2)cnc1Cl [Example 131, N-(2-chloro-5-(3-oxo-4-phenyl-3,4-dihydroquinoxalin-6-yl)pyridin-3-yl) 2-methoxy-N-methylethanaminosulfonamide] | 0.0032 µM | 0.0092 µM | 0.0076 µM
20 | CS(=O)(=O)Nc1cc(-c2ccc3nccc(-c4ccnc(C(F)(F)F)c4)c3c2)cnc1Cl [Example 111, N-(2-chloro-5-(4-(2-(trifluoromethyl)-4-pyridinyl)-6-quinolinyl)-3-pyridinyl)methanesulfonamide] | 0.003 µM | 0.0261 µM | 0.0028 µM
21 | CS(=O)(=O)Nc1cc(-c2ccc3nccc(NC4CCNCC4)c3c2)cnc1Cl [Example 88, N-(2-chloro-5-(4-(4-piperidinylamino)-6-quinolinyl)-3-pyridinyl)methanesulfonamide] | 0.161 µM | 6.84 µM | 1.77 µM
22 | COCCN(C)S(=O)(=O)Nc1cc(-c2ccc3ncc(=O)n(-c4cccc(C(F)(F)F)c4)c3c2)cnc1Cl [Example 134, N-(2-Chloro-5-(3-oxo-4-(3-(trifluoromethyl)phenyl)-3,4-dihydroquinoxalin-6-yl)pyridin-3-yl) 2-methoxy-N-methylethanamino sulfonamide] | 0.0185 µM | 0.0283 µM | 0.0042 µM
